# Molecular target: T1, FL hMALT1 enzyme (Homo sapiens, UniProt Q9UDY8);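 further: Cell-free protease assay: enzyme preincubated with compound 30 min at room temperature, then cleavage of fluorogenic Ac-LVSR-AMC substrate (100 µM) tracked by fluorescence (ex 360/em 460 nm)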
# T1 sequence (Q9UDY8 1-824): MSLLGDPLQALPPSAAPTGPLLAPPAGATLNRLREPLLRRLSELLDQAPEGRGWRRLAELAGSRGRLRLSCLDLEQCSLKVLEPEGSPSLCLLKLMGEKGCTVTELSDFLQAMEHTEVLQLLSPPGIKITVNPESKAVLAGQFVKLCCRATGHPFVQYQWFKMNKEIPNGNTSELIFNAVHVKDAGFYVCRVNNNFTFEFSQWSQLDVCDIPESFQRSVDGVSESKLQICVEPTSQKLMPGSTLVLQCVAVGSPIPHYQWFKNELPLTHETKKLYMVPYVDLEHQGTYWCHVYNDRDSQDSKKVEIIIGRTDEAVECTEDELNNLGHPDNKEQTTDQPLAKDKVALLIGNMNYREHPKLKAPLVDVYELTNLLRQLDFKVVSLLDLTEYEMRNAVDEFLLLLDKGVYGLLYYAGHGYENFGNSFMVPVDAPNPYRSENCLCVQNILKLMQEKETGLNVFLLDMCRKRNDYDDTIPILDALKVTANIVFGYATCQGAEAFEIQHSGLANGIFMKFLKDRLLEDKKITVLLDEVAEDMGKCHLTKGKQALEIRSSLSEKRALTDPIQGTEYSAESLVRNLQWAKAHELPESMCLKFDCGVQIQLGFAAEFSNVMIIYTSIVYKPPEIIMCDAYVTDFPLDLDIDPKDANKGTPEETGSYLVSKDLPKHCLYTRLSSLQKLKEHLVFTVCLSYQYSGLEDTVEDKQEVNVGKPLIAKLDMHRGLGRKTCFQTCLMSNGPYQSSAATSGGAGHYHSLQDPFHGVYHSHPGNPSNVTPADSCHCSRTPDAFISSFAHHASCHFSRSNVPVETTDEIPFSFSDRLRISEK
# Experiment: biochemical
# Conditions: not given
row,IC50 [nM],SMILES
1,16,"CN(C(=O)[C@H]1CCC(=O)NC1)[C@@H](c1ccc(NC2Cc3ccc(Cl)c(C4CC4)c3C2)cn1)C(F)(F)F (single isomer, unassigned) [Example 330]"
2,14,"CNC(=O)N1CC(C(=O)N(C)[C@@H](c2ccc(NC3Cc4ccc(Cl)c(Cl)c4C3)cn2)C(F)(F)F)C1 (single isomer, unassigned) [Example 335]"
3,24,"CN(C(=O)[C@H]1CNC(=O)C1)[C@@H](c1ccc(NC2Cc3ccc(Cl)c(F)c3C2)nc1)C(F)(F)F (single isomer, unassigned) [Example 339]"
4,15,"CN(C(=O)C1CC2(CCC(=O)N2)C1)[C@@H](c1ccc(NC2Cc3ccc(Cl)c(Cl)c3C2)cn1)C(F)(F)F (single isomer, unassigned) [Example 341]"
5,16,"CN(C(=O)[C@H]1CNC(=O)C1)[C@@H](c1ccc(NC2Cc3ccc(Cl)c(Cl)c3C2)nc1)C(F)(F)F (single isomer, unassigned) [Example 347]"
6,61,"CN(C(=O)CC#N)[C@@H](c1ccc(NC2Cc3ccc(Cl)c(Cl)c3C2)cn1)C(F)(F)F (single isomer, unassigned) [Example 350]"
7,30,"CN(C(=O)C1CCS(=O)(=O)C1)[C@@H](c1ccc(NC2Cc3ccc(Cl)c(Cl)c3C2)cn1)C(F)(F)F (single isomer, unassigned) [Example 360]"
8,75,"CN(C(=O)C1CN(C(=O)C2COC2)C1)[C@@H](c1ccc(NC2Cc3ccc(Cl)c(F)c3C2)cn1)C(F)(F)F (single isomer, unassigned) [Example 371]"
9,19,"Cc1c(Cl)ccc2c1CC(Nc1ccc([C@H](N(C)C(=O)C3CCS(=O)(=O)CC3)C(F)(F)F)nc1)C2 (single isomer, unassigned) [Example 372]"
10,40,"CC(=O)N1CC(C(=O)N(C)[C@@H](c2ccc(NC3Cc4ccc(Cl)c(Cl)c4C3)cn2)C(F)(F)F)C1 (single isomer, unassigned) [Example 377]"

# More lines, now with the values behind:
row,SMILES,IC50 [nM]
1,"CN(C(=O)C1CCN(S(C)(=O)=O)CC1)[C@@H](c1ccc(NC2Cc3ccc(Cl)c(Cl)c3C2)cn1)C(F)(F)F (single isomer, unassigned) [Example 325]",9
2,"CN(C(=O)[C@@H]1CNC(=O)C1)[C@@H](c1ccc(NC2Cc3ccc(Cl)c(C4CC4)c3C2)cn1)C(F)(F)F (single isomer, unassigned) [Example 328]",18
3,"CN(C(=O)C1CCS(=O)(=O)CC1)[C@@H](c1ccc(NC2Cc3ccc(Cl)c(F)c3C2)nc1)C(F)(F)F (single isomer, unassigned) [Example 332]",14
4,"CN(C(=O)[C@H]1CCC(=O)NC1)[C@@H](c1ccc(NC2Cc3ccc(Cl)c(F)c3C2)cn1)C(F)(F)F (single isomer, unassigned) [Example 337]",51
5,"CN(C(=O)C1CC2(CCC(=O)N2)C1)[C@@H](c1ccc(NC2Cc3ccc(Cl)c(Cl)c3C2)cn1)C(F)(F)F (single isomer, unassigned) [Example 343]",77
6,"CN(C(=O)C1CN(C(=O)C2CCOC2)C1)[C@@H](c1ccc(NC2Cc3ccc(Cl)c(Cl)c3C2)cn1)C(F)(F)F (single isomer, unassigned) [Example 352]",46
7,"CN(C(=O)C1CN(C(=O)C2CCOC2)C1)[C@@H](c1ccc(NC2Cc3ccc(Cl)c(Cl)c3C2)cn1)C(F)(F)F (single isomer, unassigned) [Example 353]",33
8,"CN(C(=O)C1CCS(=O)(=O)C1)[C@@H](c1ccc(NC2Cc3ccc(Cl)c(Cl)c3C2)cn1)C(F)(F)F (single isomer, unassigned) [Example 358]",55
9,"CN(C(=O)[C@H]1C[C@H](O)C1)[C@@H](c1ccc(NC2Cc3ccc(Cl)c(F)c3C2)cn1)C(F)(F)F (single isomer, unassigned) [Example 374]",50

# System: IL-2 release from stimulated Jurkat cells
# Experiment: Human IL-2 Release Phenotypic Assay (Assay 3)
# Type: cell-based
# Conditions: Homo sapiens, Jurkat, 48 h, Jurkat cells (clone E6-1), 200 ng/mL PMA + 300 ng/mL ionomycin, IL-2 by ELISA
# Outline: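 IC50 values were fitted by 4-parameter non-linear regression to IL-2 release from Jurkat E6-1 cells. Those cells were stimulated for 48 h with PMA (200 ng/mL) plus ionomycin (300 ng/mL) after a 30-min compound pre-incubation at half-log doses in 0.5% DMSO. Cells had been plated at 50 000/well overnight at 37° C.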
row,IC50 [nM],SMILES
1,220,"CN(C(=O)[C@H]1CCC(=O)NC1)[C@@H](c1ccc(NC2Cc3ccc(Cl)c(C4CC4)c3C2)cn1)C(F)(F)F (single isomer, unassigned) [Example 330]"
2,42,"CNC(=O)N1CC(C(=O)N(C)[C@@H](c2ccc(NC3Cc4ccc(Cl)c(Cl)c4C3)cn2)C(F)(F)F)C1 (single isomer, unassigned) [Example 335]"
3,66,"CN(C(=O)[C@H]1CNC(=O)C1)[C@@H](c1ccc(NC2Cc3ccc(Cl)c(F)c3C2)nc1)C(F)(F)F (single isomer, unassigned) [Example 339]"
4,41,"CN(C(=O)[C@H]1CNC(=O)C1)[C@@H](c1ccc(NC2Cc3ccc(Cl)c(Cl)c3C2)nc1)C(F)(F)F (single isomer, unassigned) [Example 347]"
5,230,"CN(C(=O)CC#N)[C@@H](c1ccc(NC2Cc3ccc(Cl)c(Cl)c3C2)cn1)C(F)(F)F (single isomer, unassigned) [Example 350]"
6,220,"CN(C(=O)C1CN(C(=O)C2COC2)C1)[C@@H](c1ccc(NC2Cc3ccc(Cl)c(F)c3C2)cn1)C(F)(F)F (single isomer, unassigned) [Example 371]"
7,130,"Cc1c(Cl)ccc2c1CC(Nc1ccc([C@H](N(C)C(=O)C3CCS(=O)(=O)CC3)C(F)(F)F)nc1)C2 (single isomer, unassigned) [Example 372]"
8,130,"CC(=O)N1CC(C(=O)N(C)[C@@H](c2ccc(NC3Cc4ccc(Cl)c(Cl)c4C3)cn2)C(F)(F)F)C1 (single isomer, unassigned) [Example 377]"

# The remaining lines, values behind:
row,SMILES,IC50 [nM]
1,"CN(C(=O)C1CCN(S(C)(=O)=O)CC1)[C@@H](c1ccc(NC2Cc3ccc(Cl)c(Cl)c3C2)cn1)C(F)(F)F (single isomer, unassigned) [Example 325]",35
2,"CN(C(=O)[C@@H]1CNC(=O)C1)[C@@H](c1ccc(NC2Cc3ccc(Cl)c(C4CC4)c3C2)cn1)C(F)(F)F (single isomer, unassigned) [Example 328]",240
3,"CN(C(=O)C1CCS(=O)(=O)CC1)[C@@H](c1ccc(NC2Cc3ccc(Cl)c(F)c3C2)nc1)C(F)(F)F (single isomer, unassigned) [Example 332]",47
4,"CN(C(=O)[C@H]1CCC(=O)NC1)[C@@H](c1ccc(NC2Cc3ccc(Cl)c(F)c3C2)cn1)C(F)(F)F (single isomer, unassigned) [Example 337]",170
5,"CN(C(=O)C1CN(C(=O)C2CCOC2)C1)[C@@H](c1ccc(NC2Cc3ccc(Cl)c(Cl)c3C2)cn1)C(F)(F)F (single isomer, unassigned) [Example 352]",110
6,"CN(C(=O)[C@H]1C[C@H](O)C1)[C@@H](c1ccc(NC2Cc3ccc(Cl)c(F)c3C2)cn1)C(F)(F)F (single isomer, unassigned) [Example 374]",230

# Same assay, conditions: Jurkat cells (clone E6-1), 200 ng/mL PMA + 300 ng/mL ionomycin, 48 hours, IL-2 by ELISA
row,IC50 [nM],SMILES
1,100,"CN(C(=O)C1CC2(CCC(=O)N2)C1)[C@@H](c1ccc(NC2Cc3ccc(Cl)c(Cl)c3C2)cn1)C(F)(F)F (single isomer, unassigned) [Example 341]"
2,110,"CN(C(=O)C1CCS(=O)(=O)C1)[C@@H](c1ccc(NC2Cc3ccc(Cl)c(Cl)c3C2)cn1)C(F)(F)F (single isomer, unassigned) [Example 360]"

# More lines, now with the values behind:
row,SMILES,IC50 [nM]
1,"CN(C(=O)C1CC2(CCC(=O)N2)C1)[C@@H](c1ccc(NC2Cc3ccc(Cl)c(Cl)c3C2)cn1)C(F)(F)F (single isomer, unassigned) [Example 343]",360
2,"CN(C(=O)C1CN(C(=O)C2CCOC2)C1)[C@@H](c1ccc(NC2Cc3ccc(Cl)c(Cl)c3C2)cn1)C(F)(F)F (single isomer, unassigned) [Example 353]",63
3,"CN(C(=O)C1CCS(=O)(=O)C1)[C@@H](c1ccc(NC2Cc3ccc(Cl)c(Cl)c3C2)cn1)C(F)(F)F (single isomer, unassigned) [Example 358]",250

# Reference: patent publication US20260184687A1, “DIHYDROINDENE DERIVATIVES AS MALT1 INHIBITORS” (C4X Discovery Limited, priority 2022, published 2026)
